Experimental data from PMC7279038, “Antioxidant and Neuroprotective Effects Induced by Cannabidiol and Cannabigerol in Rat CTX-TNA2 Astrocytes and Isolated Cortexes” (International Journal of Molecular Sciences, 2020).

Experiments:
[1] = test system: calcium/calmodulin-dependent protein kinase type II subunit alpha (CAMK2A); test: Untargeted proteomic analysis of cortexes, CAMK2A; design: species or system rat; details: CBD 1000 nM, CBG 1 nM
Protocol: Sprague–Dawley rats (200–250 g) were sacrificed by CO2 inhalation (Italian Health Ministry authorization N. F4738.N.XTQ, delivered on 11th November 2018) and isolated prefrontal cortex specimens were immediately explanted and incubated in thermostatic shaking bath at 37 °C for 1 h (incubation period), in Krebs–Ringer buffer at the following K^+ concentrations:
Cortexes were stimulated with CBD (1000 nM) and CBD (1 nM). Afterwards, specimens were homogenized in perchloric acid solution (0.05 M) for the extraction and quantification of nitrites, via the aforementioned colorimetric Griess assay, and serotonin (5-HT), 5-hydroxyindoleacetic (5HIIA),3-hydroxykinurenine (3-HK) and kinurenic acid (KA) (ng/mg wet tissue) via high performance liquid chromatography analysis. Additionally, an untargeted proteomic analysis was carried out on the cortex homogenate. The analytical protocols for 5-HT, 5HIIA, 3-HK, KA and protein level determinations are described below. […]
After protein quantification, a volume corresponding to 50 μg of proteins was loaded onto a Nanosep 10-kDa-cutoff filter (Pall Corporation, Michigan, USA) and digested according to the protocol we routinely use in our laboratory, adapted from Distler et al. Briefly, the sample was washed twice with 200 μL urea buffer (8M urea, 100 mM Tris pH 8.5 in milliQ water) to remove the detergents present in the lysis buffer. […]

[2] = ABTS scavenging ability test; details: mean ± S.D., n = 3
Protocol: For the 2,2′-azino-bis(3-ethylbenzothiazoline) 6-sulfonic acid (ABTS) radical scavenging assay, ABTS+ was produced directly by reacting 7 mM ABTS solution with 2.45 mM potassium persulfate and allowing the mixture to stand for […] in the dark at room temperature. Prior to beginning the assay, ABTS solution was diluted with methanol to an absorbance of 0.700 ± 0.02 at 734 nm. Sample solution was added to ABTS solution (2 mL) and mixed. The sample absorbance was read at 734 nm after a 30 min incubation at room temperature. The ABTS radical scavenging activity was expressed as IC50 values.

SMILES	effect on K+ 60 mM-induced reduction in CAMK2A level [1]	IC50 [2] [µM]
C=C(C)[C@@H]1CCC(C)=C[C@H]1c1c(O)cc(CCCCC)cc1O [CBD, Cannabidiol]	blocking the downregulation	1040 ± 10
CCCCCc1cc(O)c(C/C=C(\C)CCC=C(C)C)c(O)c1 [CBG, cannabigerol]	completely ineffective	1030 ± 10
